Measured values from patent US7323601B2, “Enanitomers of unsaturated alkyllysophosphonocholines and use as anti-neoplastics” (Research Foundation of the City University of New York, priority 2001, dated 2008).

Key:
[1] = system: T47D breast epithelial cancer cell line; assay: Proliferation of log-phase cells, T47D; assay type: cell-based; details: 48 h incubation, 10% FBS-supplemented medium, read-out: IC50 values (drug concentration required to reduce cell growth by 50%)
Protocol: (§1) All the cell lines were grown from frozen stocks originally obtained from ATCC. T47D, MDA-MB-468 and MCF-7 (breast cancer cell lines) were grown in DMEM. SK-N-MC and SK-N-SH (neuroblastoma) were grown in minimum essential medium with non-essential amino acids and Earle's balanced salt solution. All media were supplemented with 10% FBS and antibiotics (Ashagbley, A., Samadder, P., Bittman, R., Erukulla, R. K., Byun, H-S., Arthur, G. (I 996) Anticancer Res. 16, 1813-1818).
(§2) The effect of the ET-16-phosphono-TDBs on cell proliferation was conducted as previously described (Ashagbley, A., Samadder, P., Bittman, R., Erukulla, R. K., Byun, H-S., Arthur, G. (1996) Anticancer Res. 16, 1813-1818; and Lu, X., and Arthur, G. (1992) Cancer Res. 52, 2806-2812). The cells were seeded in 24-well dishes at a density of 20,000 cells/well with 10% FBS-supplemented medium. The cell numbers were monitored daily. […] The cell numbers at the time of addition of the drugs were determined with a Coulter ZM counter. After 48 h incubation, the cell numbers were determined and the increase in cell number over the numbers at the time of the addition of the drugs was determined and expressed as a function of the control cells which received no drug. The viability of the cells was assessed by the ability to exclude trypan blue dye.

[2] = system: MDA-MB-468 breast epithelial cancer cell line; assay: Proliferation of log-phase cells, MDA-MB-468; assay type: cell-based; details: 48 h incubation, 10% FBS-supplemented medium, read-out: IC50 values (drug concentration required to reduce cell growth by 50%)
Protocol: as §1, §2

[3] = system: MCF-7 breast epithelial cancer cell line; assay: Proliferation of log-phase cells, MCF-7; assay type: cell-based; details: 48 h incubation, 10% FBS-supplemented medium, read-out: IC50 values (drug concentration required to reduce cell growth by 50%)
Protocol: as §1, §2

[4] = system: SK-N-MC neuroblastoma cell line; assay: Proliferation of log-phase cells, SK-N-MC; assay type: cell-based; details: 48 h incubation, 10% FBS-supplemented medium, read-out: IC50 values (drug concentration required to reduce cell growth by 50%)
Protocol: as §1, §2

[5] = system: SK-N-SH neuroblastoma cell line; assay: Proliferation of log-phase cells, SK-N-SH; assay type: cell-based; details: 48 h incubation, 10% FBS-supplemented medium, read-out: IC50 values (drug concentration required to reduce cell growth by 50%)
Protocol: as §1, §2

U937 tumor cell line = assay: Growth inhibition (GI50), U937; assay type: cell-based, human
HT29 tumor cell line = assay: Growth inhibition (GI50), HT29; assay type: cell-based, human
A549 tumor cell line = assay: Growth inhibition (GI50), A549; assay type: cell-based, human
MCF7 tumor cell line = assay: Growth inhibition (GI50), MCF7; assay type: cell-based, human
MCF7/ADR tumor cell line = assay: Growth inhibition (GI50), MCF7/ADR; assay type: cell-based, human
[6] = system: NIH-3T3 normal fibroblast cell line; assay: Growth inhibition (GI50), NIH-3T3; assay type: cell-based; details: NIH-3T3 normal cell line (murine)
Text: (§3) For growth inhibitory evaluation, five human tumor cell lines (U937; HT29; A549; MCF7; MCF7/ADR) and two normal fibroblast cell lines (NIH-3T3, murine; WI-38, human) were used. For comparison, the activity of free L-ET18OCH3 and D-ET18OCH3 was examined.

[7] = system: WI-38 normal fibroblast cell line; assay: Growth inhibition (GI50), WI-38; assay type: cell-based; details: WI38 normal cell line (human)
Text: as §3

[8] = system: normal cell lines as compared to the tumor cell lines; assay: Growth inhibition, normal versus tumor cell lines; assay type: cell-based; details: normal (NIH-3T3, WI-38) versus tumor cell lines
Text: as §3

MAP kinase = MAP kinase phosphorylation in stimulated MCF-7 cells (Western blot); assay type: cell-based; details: 15 μM preincubation 3 h; insulin- and EGF-stimulated MCF-7 cells
Protocol: (§4) Quiescent MCF-7 cells were preincubated with (“+” in FIGS. 6-8) or without (“−” in FIGS. 6-8) 15 μM of the R or S enantiomer of ET-16-phosphono-TDB (TDB-PC in FIGS. 7-9) in DMEM supplemented with BSA (0.5 mg/mL) for 3 h. The cells were washed twice and stimulated with […] growth factor (EGF) or insulin for various periods. At the end of the incubation, the medium was aspirated, and the cells washed with ice-cold PBS and scraped into ice cold buffer comprising 20 mM Tris-HCl (pH 7.4) 2 mM EGTA, 100 mM β-glycerophosphate, 1 mM Na3VO4, aprotinin (10 μg/mL), leupeptin (10 μg/mL), 0.2 mM aininoethylbenzylsulfonyl fluoride, 0.2 mM benzarnidine, 1 mM dithiothreitol, 1% triton-X-100, and 0.5% NP-40). After ultrasonication, the mixture was centrifuged at 100,000×g for 30 min. The cell lysates were flash frozen and stored at −70° C. until required.
(§5) MAP kinase activity in cell lysates from EGF and insulin-stimulated MCF-7 cells were assessed by Western blot analysis with phospho-specific antibodies according to the instructions provided by the manufacturer (New England Biolabs). PKB/AKT activity in insulin-stimulated MCF-7 cell lysates was also assessed with phospho-specific antibodies by Western blot analysis. Bound antibody was visualized by chemiluminescence using reagents from Boehringer Mannheim and quantitated with a multiimager Fluor S system (BioRad).

PKB/AKT = PKB/AKT phosphorylation in stimulated MCF-7 cells (Western blot); assay type: cell-based; details: 15 μM preincubation 3 h; insulin- and EGF-stimulated MCF-7 cells
Protocol: as §4, §5

Structure (SMILES) | IC50 [1] [µM] | IC50 [2] [µM] | IC50 [3] [µM] | IC50 [4] [µM] | IC50 [5] [µM] | GI50 (U937 tumor cell line) [µM] | GI50 (HT29 tumor cell line) [µM] | GI50 (A549 tumor cell line) [µM] | GI50 (MCF7 tumor cell line) [µM] | GI50 (MCF7/ADR tumor cell line) [µM] | GI50 [6] [µM] | GI50 [7] [µM] | selectivity: GI50 values for the normal cell lines as compared to the tumor cell lines [8] | inhibition of phosphorylation of MAP kinase (MAP kinase) | inhibition of phosphorylation of PKB (PKB/AKT)
CCCCCCCCCCCCCCCCOC[C@@H](C=CP(=O)([O-])OCC[N+](C)(C)C)OC [(R)-ET-16-phosphono-TDB, 2′-(Trimethylammonio)ethyl 4-(hexadecyloxy)-3-(R)-methoxy-1-butenephosphonate] | > 5 | > 5 | 4.1 | > 5 | 2.5 | 2.2 | 5.9 | 15.3 | 35.1 | > 40 | 77.3 | 57.5 | remarkable selectivity |  | 
CCCCCCCCCCCCCCCCOC[C@H](C=CP(=O)([O-])OCC[N+](C)(C)C)OC [(S)-ET-16-phosphono-TDB, 2′-(Trimethylammonio)ethyl 4-(hexadecyloxy)-3-(S)-methoxy-1-butenephosphonate] | 0.9 | 4.2 | 1.9 | 2.2 | 1.8 | 1.1 | 2.8 | 9 | 32.4 | > 40 | 66.3 | 14.4 | remarkable selectivity | to a greater extent than the less active R enantiomer | to a greater extent than the less active R enantiomer
